Data reported in patent US12565665B2, “Compositions and methods for controlled mRNA translation and stability” (TRUSTEES OF BOSTON UNIVERSITY, priority 2022, dated 2026).

What was measured:
Type in all cases: cell-based, human
UAG-MS2 editing reporter = assay: Stop codon editing reporter (mCherry / mNeonGreen) co-transfected with ADAR variants, fluorescence microscopy / ImageJ quantification; conditions: HEK 293 FT cells co-transfected with reporter containing 2 UAG stop codons in the hairpin; two days after transfection
T2A* construct = assay: Western blot (FLAG) of T2A* construct co-transfected with MCP-ADAR constructs; conditions: 3 ng T2A* and 30 ng ADAR construct; lysates 48 hours later
Procedure: Additionally, the clonal HEK line was co-transfected with 3 ng of the T2A* construct and 30 ng of either filler DNA, MCP-dADAR, or MCP-ADAR. 48 hours later lysates were collected with 1×LDS-PAGE loading buffer (THERMOFISHER) on ice. The samples were sonicated, centrifuged, and boiled at 70° C. for 10 min after the addition of 1×Reducing Agent (THERMOFISHER). The samples were run on a 4%-12% bis-tris polyacrylamide gel at 175V for 45 minutes, and the samples were transferred onto a nitrocellulose membrane using the IBLOT (THERMOFISHER). Samples were probed for FLAG tag (Direct-Blot™ HRP anti-[…] Tag Antibody, “[…]” is disclosed as SEQ ID NO: 406) and GAPDH-loading control (Direct-Blot™ HRP anti-GAPDH Antibody) respectively.

[1] = test system: Non-Stop-Decay reporter construct; assay: Non-stop decay OFF-switch reporter (dTomato-BiCMV-EGFPd2); conditions: biCMV reporter with 2 UAG stop codons; 48-hours post-transfection
Description: In order to do so, the inventors designed a synthetic transcript (FIG. 2A) where there is an open reading frame (green), 1 or more stop codons in an RNA-hairpin (dark gray), a specific RNA element (light gray), and a 3′UTR with no downstream stop codons prior to the polyadenylate (polyA) tail. The inventors created a reporter plasmid that contained a bidirectional CMV driving the expression dTomato on one transcript and EGFPd2, an editable stop codon, an MS2 operator, and a mutated rabbit-β-globin 3′UTR/poly A signal sequence lacking additional stop codons on the other transcript (FIG. 2B). In the absence of ADAR-DD activity, both dTomato and EGFPd2 should be translated and expressed. However, coexpression of MCP-ADAR2 should lead to editing of the only in-frame stop codon and the initiation of an endogenous process called non-stop decay, whereby the translating ribosome stalls on the polyA-tail and recruits Ski7 followed by exonucleases to destroy the mRNA (FIG. 2C). In this process, proteosomal degradation of the nascent, unreleased polypeptide also occurs. […]
As a final test, the inventors used the MS1(117A)/Mcl-1 variant with the dTomato-BiCMV-EGFPd2 reporter plasmid (FIG. 2B), which should lose EGFPd2 fluorescence with ADAR editing of the final stop codon.

GFP-GPI reporter = assay: AUA to AUI editing creating upstream in-frame signal sequence and HA tag, live imaging and HA staining
Description: To test this, a reporter construct was designed that contained: an MS2-A editable AUA start codon upstream of the murine IgGκ signal sequence and HA epitope tag (SS-HA), an in frame AUG start codon, GFP, and the glycosylphosphatidylinositol (GPI) anchor sequence from Thymocyte differentiation antigen 1 (GPI in diagram) (see e.g., FIG. 27a). With this reporter, in the absence of editing, the majority of the translated product will be from the AUG codon directly upstream of GFP. This will lead to the translation product residing in the cytoplasm with a non-functional GPI anchor (as this post-translational modification (PTM) must occur in the endoplasmic reticulum (ER) lumen). Upon ADAR editing of the upstream AUA to AUI, translation will initiate upstream of the signal sequence, leading to co-translational translocation of HA-GFP-GPI into the ER lumen, the addition of the GPI anchor PTM, and presentation of HA-GFP on the plasma membrane (see e.g., FIG. 27b). With this construct, the editing can be monitored by either by microscopy (looking for ER & plasma membrane localization) or directly by immunostaining for the HA-tag.
HEK cells were co-transfected with the GFP-GPI reporter and either filler DNA, MCP-dADAR, or MCP-ADAR. A GFP-GPI with a functional start codon before the secretion signal was also transfected as a positive control (GFP-GPI Control). One day after transfection, HEK cells were imaged live, and then fixed and stained for HA tag with a primary anti-HA antibody and a secondary antibody that was conjugated to ALEXAFLUOR 647 (AF647).

T2A (G18R) construct = assay: Sense codon editing (AGG to IGG) of T2A (G18R), UAS-H2B-mCherry reporter cells, flow cytometry; conditions: 30 ng ADAR construct, n=3
Description: To test inducible ADAR recoding of a protein's amino acid composition, a construct was designed that contained: a CD8 signal peptide, an HA epitope tag, the self-labeling Halo Tag, a mutant variant of the thosea asigna virus 2A self-cleaving peptide that is defective for ribosome skipping (Gly 18Arg mutation), the DNA binding domain of Gal4, and a 4× repeat of the transcriptional activation domain from herpes virus (VP64) (see e.g., FIG. 37a). The penultimate glycine in 2A peptides is invariant (see e.g., FIG. 37b) and any mutation leads to defective ribosome skipping. The codon for the G18R residue (AGG) is in a dsRNA hairpin with the high affinity MS2-C motif, which acts as a substrate for targeted MCP-ADAR. In the absence of ADAR editing, the defective T2A sequence will lead to the topological sequestering of the Gal4-VP64 transcription factor in the ER lumen due to the fusion to the secreted HaloTag (see e.g., FIG. 37c). Upon ADAR editing of the Arg18 codon to glycine (AGG to IGG), the T2A regains the function of ribosome skipping. This leads to the protein domains downstream of the T2A sequence to be translated as a separate polypeptide in the cytoplasm, whereby the GAL4-VP64 transcription factor translocate to the nucleus and turn on the expression of a fluorescent H2B-mCherry reporter (see e.g., FIG. 37c).
To test this, an in-house clonal HEK293FT cell line that contains an integrated UAS-H2B-mCherry reporter was co-transfected with the editable T2A (also called T2A*) construct (3 ng, 0.3 ng and 0.03 ng) and cither MCP-dADAR or MCP-ADAR (30 ng). A GAL4-VP64 positive control was also transfected into HEK cells. One day post-transfection, cells were lifted and analyzed by flow cytometry. Transfected cells were gated by TagBFP, the median H2B-mCherry fluorescence for the population was calculated and H2B-mCherry positive populations within the transfected cells were determined by the percentage of cells above 0.5% of non-transfected control cells per replicate (n=3) by FLOWJO.

## MCP-linker-ADAR2(E488Q)-TagBFP [MCP-ADAR]
UAG-MS2 editing reporter
  mNeonGreen expression, fluorescence microscopy: mNeonGreen robustly expressed
T2A* construct
  FLAG staining of the main HaloTag-T2A*-FLAG-Gal4-VP64 fusion product (~67 kDa): reduced staining
[1]
  EGFPd2 expression relative to catalytically inactive DD, fluorescence microscopy: greatly decreased EGFPd2 expression levels
GFP-GPI reporter; fixed, permeabilized, anti-HA and AF647 secondary
  HA tag staining of cells with AUA construct: robust staining
GFP-GPI reporter; one day after transfection
  cellular distribution of GFP from AUA-SS-GFP-GPI, live imaging: looked very similar
T2A (G18R) construct; 0.03 ng T2A* construct
  population expressing any H2B-mCherry compared to dADAR, 0.03 ng T2A*: significantly higher
T2A (G18R) construct; 0.3 ng T2A* construct
  population expressing any H2B-mCherry compared to dADAR, 0.3 ng T2A*: significantly higher
T2A (G18R) construct; 3 ng T2A* construct, one day post-transfection
  median H2B-mCherry expression compared to inactive MCP-dADAR control: significant increase
